One compound from patent EP0429333B1, “Process for producing oxazopyrroloquinolines, novel oxazopyrroloquinolines, and use of oxazopyrroloquinolines” (priority 1989, dated 1991) can be followed below.

Data set [1] is described as follows: Acute toxicity test. Conditions: mouse, in vivo, ip. The protocol:
(§1) (1) Acute toxicity test: • (i) To male SPF-ICR mice of 5 weeks old (supplied by Charles River Co.) were intraperitoneally administered PQQ·2Na and OPQs in the dosages of 20, 40, 80, 160 and 200 mg/kg body weight of mouse, respectively and they were bred at 25°C for 14 days. OPQ, 1-methylpropyl OPQ, 2-methylthioethyl OPQ, and benzyl OPQ were used as the OPQs. One group consisted of 8 mice. […] One group consisted of 8 mice. […] They were bred at 25°C for 14 days. One group consisted of eight mice. […] (2) Toxicity to kidney (i) Toxicity to kidney determined by urine examination: In the same manner as in the acute toxicity test, PQQ·2Na and OPQs were respectively intraperitoneally administered to mice and these mice were bred. Urine was collected every day and concentration of glucose in urine was obtained using Uristex II (manufactured by Miles·Sankyo Co.). […]

Data set [2] deals with male SPF-ICR mice. The data set is described as follows: Acute toxicity test. The protocol:
as §1

Data set [3] deals with T1, aldose reductase of rabbit lens (Oryctolagus cuniculus, UniProt P15122).
T1 construct: to obtain electrophoretically homogeneous aldose reductase; from tissue; host or cells: rabbit lens
The data set is described as follows: Inhibitory effect on aldose reductase of lens. In kind it is biochemical. Conditions: read-out: Degree of inhibition for aldose reductase (%). The gist of the method: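 Electrophoretically homogeneous aldose reductase purified from rabbit lens was assayed with NADPH (0.05 ml of 3 mM stock) and DL-glyceraldehyde in 0.1 M phosphate buffer pH 6.2 at 25 °C. Activity was followed as the decrease in A340 over time. Inhibition was calculated against activity without inhibitor, with compounds tested at various concentrations.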

In data set [4] the test system is T cell. The data set is described as follows: Test on T cell blast transformation reaction (1), spleen cells of treated mice. Conditions: for Relative activity (%): no administration = 100. In kind it is in vivo, C3H/He mouse. The protocol:
In the same manner as in Example 36, OPQ was administered to C3H/He mouse and the mouse was bred. Dosage of OPQ for one administration per one mouse was 0.2 ml of OPQ solution containing 0.5 mg/ml of OPQ for group B and 0.2 ml of the solution containing 1.0 mg/ml of OPQ for group C and 0.2 ml of physiological saline was administered for group A.
On the 8th day from starting of experiment, mouse was anesthetized with ether and blood was drawn from carotid artery and spleen was aseptically extracted.
Cells of the spleen of respective groups were broken up and these cells were floated on tris-NH4Cl hemolytic solution warmed to 37°C and left for 5 minutes at 37°C to hemolyze erythrocytes, followed by washing twice with cold Hanks solution. The cells were suspended in RPMI medium at 4 x 10^6 cells/ml and the suspension was put in a flat bottom microplate of 96 holes. Culture was carried out in the air containing 5 % of CO2 at 37°C using concanavalin A (Type IV Sigma C2010) in an amount of 0.5 µg/ml or 2 µg/ml as mitogen. After 63 hours from starting of culture, ^3H-thymidine was added in an amount of 2.5 µci/ml and culturing was carried out for further 9 hours. Thereafter, cells were gathered on a glass fiber filter by cell harvester and ^3H on this filter was measured by a liquid scintillation counter.
As control, same four culturings were conducted under the same conditions without adding concanavalin A.
Values in the table are average values of intake amount (cpm) of ^3H in culture under four same conditions.
In Examples 36 - 40, macrophage activity was examined according to chemotaxis of peritoneal macrophage (literature 1) and activity of T cell and that of B cell were examined according to blast transformation reaction using concanavalin A and lipopolysaccharide, (LPS) as mitogen (literature 2). Literature 1: "Function of Macrophage and Method of Measurement of Function", pages 61-65 1985), edited by Educational Committee of Japan Bacteriological Society and published from Saikon Shuppan Co.) Literature 2: "New Method of Searching of Function of Lymphocytes", pages 350-355 (1987) edited by Junichi Yada and Michio Fujiwara and published from Chugai Igaku Co.

Structures are written as SMILES.

For orientation: LD50 means the dose expected to kill half of the subjects tested. A low value points to a more toxic substance. What is called inhibition is how much of the control response was suppressed.

In the case of `O=C(O)c1cc(C(=O)O)c2c(n1)c1ncoc1c1cc(C(=O)O)[nH]c12` [OPQ, oxazopyrroloquinoline], the LD50 at 336 h in data set [1] was approximately 1000 mg/kg. In addition, the death of mice result in data set [2] (0.1 - 0.4 g/kg intraperitoneally, 8 mice per group, 14 days) is given as “All mice survived”; in data set [2] (0.8 g/kg intraperitoneally, 8 mice, 14 days) it was “two mice died”; in data set [2] (1.2 g/kg intraperitoneally, 8 mice, 14 days), “six mice died”; in data set [2] (mouse, in vivo), “no mice died”; in data set [2] (orally 1.0 g, 1.5 g or 2.0 g/kg mouse, 8 mice per group, 14 days), “No mice died”. Besides, the inhibition at 0.1 µM in data set [3] (concentration 1x10^-7 M) came out at 43.2%. Also, the inhibition at 0.2 µM in data set [3] (concentration 2x10^-7 M) turned out to be 54.5%. Moreover, in data set [3] (concentration 5x10^-7 M), the inhibition at 0.5 µM stood at 63.1%. Further, the inhibition at 0.05 µM in data set [3] (concentration 5x10^-8 M) turned out to be 31%. Also, the “Relative activity (%)” value is listed as 137% in data set [4] (5 mg/kg mouse x 7 days, Concanavalin A 0.5µg/ml); 146% in data set [4] (5 mg/kg mouse x 7 days, Concanavalin A 2.0µg/ml); 189% in data set [4] (10 mg/kg mouse x 7 days, Concanavalin A 0.5µg/ml); 150% in data set [4] (10 mg/kg mouse x 7 days, Concanavalin A 2.0µg/ml). The “intake amount (cpm) of ^3H” value in data set [4] (5 mg/kg mouse x 7 days, concanavalin 0 µg/ml, no administration 7312) turned out to be 10796 cpm; in data set [4] (5 mg/kg mouse x 7 days, concanavalin 0.5 µg/ml, no administration 11637) it was 15942 cpm; in data set [4] (5 mg/kg mouse x 7 days, concanavalin 2 µg/ml, no administration 96188) it was 140376 cpm; in data set [4] (10 mg/kg mouse x 7 days, concanavalin 0 µg/ml, no administration 7312) it was 9124 cpm; in data set [4] (10 mg/kg mouse x 7 days, concanavalin 0.5 µg/ml, no administration 11637), 21965 cpm; in data set [4] (10 mg/kg mouse x 7 days, concanavalin 2 µg/ml, no administration 96188), 144171 cpm.
